Target: T1, ZmAKR4C13 (Zea mays, UniProt E9JVD4)
T1 construct: gene AR3; monomer
Experiment: X-ray crystallography
Assay type: binding
Details: 5JGW 2.30 Å (P2_12_12_1); 5JGY 1.45 Å (P2_1), partial occupancy
From the text: X-ray crystallography on ZmAKR4C13 | b32; b72

T1 sequence (E9JVD4 1-319): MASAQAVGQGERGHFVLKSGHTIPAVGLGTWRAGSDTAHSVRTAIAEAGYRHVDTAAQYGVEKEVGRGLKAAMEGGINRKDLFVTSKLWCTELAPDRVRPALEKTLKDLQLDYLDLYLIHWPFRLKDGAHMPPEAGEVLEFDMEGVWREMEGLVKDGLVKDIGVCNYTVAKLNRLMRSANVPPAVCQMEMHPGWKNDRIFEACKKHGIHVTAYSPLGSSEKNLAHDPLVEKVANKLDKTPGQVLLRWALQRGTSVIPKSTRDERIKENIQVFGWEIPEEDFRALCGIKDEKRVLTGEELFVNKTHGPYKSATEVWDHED

NC(=O)c1ccc[n+]([C@@H]2O[C@H](COP(=O)(O)OP(=O)(O)OC[C@H]3O[C@@H](n4cnc5c(N)ncnc54)[C@H](OP(=O)(O)O)[C@@H]3O)[C@@H](O)[C@H]2O)c1 [NADP+]
X-ray crystallography: b32; b72
